{"source": "patent US20140286906A1", "about": "“USE OF IGF-1 IN THE MODULATION OF TREG CELL ACTIVITY AND THE TREATMENT AND PREVENTION OF AUTOIMMUNE DISORDERS OR DISEASES” (priority 2011, published 2014)", "key": {"CD4+CD25+ splenic cells": {"tested_on": "CD4+CD25+ splenic cells", "assay": "flow cytometry of activation and homing markers on CD4+CD25+ splenic cells", "format": "cell-based, murine", "conditions": "after IGF-1 treatment in vitro", "source_text": "The expression of certain markers on the surface of the cell is correlated with the degree of activation of the cells and also controls their trafficking and localization and consequently the compartmentalization of the immune responses. This is again measured using flow cytometric methods. For example, cells expressing high levels of CD62L preferentially migrate to secondary lymphoid tissues. However, as these cells enter the periphery (for example when they travel to affected tissues during an autoimmune process) they rapidly acquire an activated phenotype and express higher levels of CD44. Thus upregulation of CD44 is associated with a higher proliferation rate. […] The importance of this observation comes from the fact that in order to exert their suppressive properties, Tregs need to migrate to the affected tissues first. Therefore, IGF-1 not only induces activation of proliferation but also promotes their correct localization.\nFinally, the inventors analyzed the ability of IGF-1 to alter the homing properties of the regulatory T cell subset. In 2003, Fisson et al. defined two distinct population of regulatory T cells in homeostatic conditions. In the steady state, some Tregs remain quiescent for long periods of time, whereas the other Treg population divides extensively and express multiple activation markers. […] This pattern of change is also consistent with a more activated phenotype. On one hand, CD44^hiCD62L^lo Treg populations, but not their CD44^loCD62L^hi counterparts, constantly incorporate BrdU, a synthetic analog of thymidine, into newly synthesized DNA in lymphoid tissues (Matsushima and Takashima, 2010). On the other hand, higher levels of CD62L have been associated with a higher capacity of Tregs to migrate to the lymph nodes, while lower levels allows them to migrate to sites of inflammation (Fisson et al., 2003; Bromley et al., 2008). Thus, T regulatory cells expressing lower levels of CD62L would have a higher inflammation-seeking capacity, which has been associated with higher suppressive potential in various inflammation models (Huehn et al., 2005). […] One, IGF-1 is able to activate a complex pathway resulting in Treg activation leading to proliferation and to selective homing and migration to the sites of inflammation. The second conclusion comes from the observation that sequential migration from blood to the target tissue and then to draining lymph nodes is required for nTreg to differentiate and execute fully their suppressive function, by inhibiting dendritic cells in the peripheral tissue and T effector cell responses in dLN and periphery (Zhang et al., 2009). Thus, IGF-1 treatment not only results in higher numbers of T regulatory cells but also in altering the trafficking of these cells to achieve a higher suppressive effect. […]"}, "[1]": {"tested_on": "FOXP3 positive cells (CD25+ splenic cells)", "assay": "Foxp3 and Ki67 flow cytometric analysis of Treg proliferation", "format": "cell-based, murine", "description": "To determine the effect of IGF-1 in the regulatory subset in vitro (cf. FIG. 4) the number of FOXP3 positive cells is determined by flow cytometric analysis. To analyze other subsets, like the proinflammatory Th1 and Th17 subsets, a similar approach is used but the number of interferon-gamma (Th1) and IL-17 (Th17) positive cells is determined. Additionally, to evaluate the number of proliferating cells at a given moment cells are stained using the intracellular marker Ki67, which is expressed only in cycling cells. The combination of a specific lineage marker (e.g., Foxp3, IFN-g, IL-17) with Ki67 allows for the determination at a given moment of the cells belonging to a certain subset and their proliferative status.\nIn animal experiments, the population is isolated normally from murine spleen (but also could be isolated from other tissues, like for example but not restricted to bone marrow, adipose tissue, cord blood derived mononuclear cell, thymus, or peripheral blood) and is sorted using different markers (e.g., CD4 and CD25). This population is defined as CD4+CD25+ and includes the regulatory cells. This population is then treated in the above-mentioned medium in the presence of IGF-1. After several days of culture part of the cells are counted, fixed, permeabilized and analyzed by flow cytometry using an anti-FOXP3 antibody in combination with the same extracellular markers (CD4 and CD25). This allows for the determination of the absolute number of FOXP3 positive cells present in the culture.\nTo further define the proliferative effects of IGF-1, FACS-sorted CD25+ splenic cells (>98% purity) after two days in culture with recombinant IGF-1 were fixed, permeabilized and stained with antibodies against FOXP3 and Ki67. Foxp3 is a transcription factor that orchestrates the cellular and molecular programs involved in T regulatory function. Ki67 is a nuclear antigen present in proliferating cells. […] After three days of culture the number of FOXP3 positive cells was increased four-fold and the number of regulatory T cells proliferating approximately six-fold."}, "[2]": {"conditions": "mouse, in vivo", "protocol": "The inventors first tested the ability of rhIGF-1 to alter the balance of Treg/CD4 positive cells after five intraperitoneal daily injections (5 μg, FIG. 11)."}, "[3]": {"tested_on": "T effector cell proliferation", "assay": "in vitro suppression of T effector cell proliferation by IGF-1 treated Tregs", "format": "cell-based", "conditions": "antigen presenting cells and soluble anti-CD3; Treg:Teff 1:2 to 1:64"}, "DSS-induced colitis": {"tested_on": "DSS-induced colitis", "assay": "DSS-induced colitis, systemic IGF-1 delivery", "format": "in vivo, mice", "source_text": "In this example the inventors examined the ability of IGF-1 to suppress inflammation in a mouse model for IBD (DSS-induced colitis, Wirtz et al, 2007). Mice ingested DSS for 7 days and developed an acute colitis. […] This difference in weight with respect to their respective control group was maintained during the duration of the IGF-1 treatment (FIG. 31).\nAdministration of DSS in several cycles results in chronic colitis (Wirtz et al., 2007). To also test if the protective effects of IGF-1 lasted beyond the IGF-1 treatment, mice were administered DSS for another cycle at day 37. […] To further confirm that the observed effects were a consequence of colonic inflammation the inventors performed a histochemical analysis of the colon (FIG. 33). DSS-treated mice presented enlargement of the muscle, mucosa and subepithelial layer and foci of infiltrating cell, the main mediators of inflammation. In contrast, DSS-colitis mice receiving IGF-1 during the initial phase of the treatment for a total of 28 days were protected and did no show this prolonged infiltration of leukocytes. Quantification of these histological parameters (FIG. 34) further confirmed the significant long-term protection in IGF-pretreated mice."}, "[4]": {"conditions": "dose response curve, 2 days stimulation"}}}
{"substance": "Insulin-like growth factor-1 [IGF-1]", "values": [{"measurement": "CD44 surface expression", "setting": "CD4+CD25+ splenic cells", "result": "upregulated"}, {"measurement": "CD62L surface expression", "setting": "CD4+CD25+ splenic cells", "result": "down"}, {"measurement": "CD71 surface expression", "setting": "CD4+CD25+ splenic cells", "result": "upregulated"}, {"measurement": "dose range at which FOXP3 positive cells respond", "setting": "[1]; [4]", "result": "falls within physiological ranges"}, {"measurement": "saturability of stimulated pathway/receptor", "setting": "[1]; [4]", "result": "saturable"}, {"measurement": "increase in number of FOXP3 positive cells", "setting": "[1]; three days of culture", "result": "four-fold"}, {"measurement": "increase in number of regulatory T cells proliferating", "setting": "[1]; three days of culture", "result": "approximately six-fold"}, {"measurement": "double positive FOXP3 Ki67 population", "setting": "[1]; two days in culture", "result": "increase"}, {"measurement": "number of FOXP3 positive cells", "setting": "[1]; two days in culture", "result": "increase"}, {"measurement": "hIGF-1 in peripheral blood", "setting": "[2]", "result": "Elevated levels"}, {"measurement": "increase of IGF-1 levels determined by ELISA", "setting": "[2]", "result": "40 and 4"}, {"measurement": "ability of Treg cells to suppress T effector cell proliferation after treatment", "setting": "[3]", "result": "retain their ability to suppress T effector cell proliferation"}, {"measurement": "histological signs of colitis, infiltration of leukocytes", "setting": "DSS-induced colitis; IGF-1 for 28 days in initial phase, after re-challenge", "result": "protected"}, {"measurement": "body weight loss", "setting": "DSS-induced colitis; acute phase, DSS for 7 days", "result": "showed protection"}, {"measurement": "thickness of the subepithelial layer of the colon", "setting": "DSS-induced colitis; after re-challenge, versus DSS-only mice, P=0.0004", "result": "significant reduction"}, {"measurement": "thickness of the mucosa of the colon", "setting": "DSS-induced colitis; after re-challenge, versus DSS-only mice, P=0.0007", "result": "significant reduction"}, {"measurement": "thickness of the muscle layer of the colon", "setting": "DSS-induced colitis; after re-challenge, versus DSS-only mice, P=0.053", "result": "significant reduction"}, {"measurement": "difference in weight with respect to control group", "setting": "DSS-induced colitis; during the duration of the IGF-1 treatment", "result": "maintained"}, {"measurement": "body weight loss after DSS re-challenge", "setting": "DSS-induced colitis; second DSS cycle at day 37, no rhIGF-1 delivered in this period", "result": "complete protection"}]}
